Assay results: patent US8143212B2 (Vicuron Pharmaceuticals Inc., priority 2002, dated 2012)

Experiments:
Gram-positive pathogen = assay: Phase II SSTI trial: microbiological response; assay type: in vivo, human; details: for Success Rate by Pathogen: Microbiologically ITT Population at FU; for eradication/presumed eradication rate, all organisms: FU assessment
Description: There were 62 patients randomized into the study; all received at least one dose of study medication. Four study populations were evaluated for safety and efficacy and were defined as follows: The intent-to-treat (ITT) population included all patients who received at least one dose of study drug (all randomized study subjects).
Microbiological outcome, a secondary efficacy variable, was assessed in the subpopulation of patients who had microbiologically documented SSTI (i.e., at least one identified baseline pathogen). A microbiologic response was assessed for each Gram-positive pathogen identified at baseline (i.e., eradication, presumed eradication, persistence, presumed persistence). For patients for whom follow-up cultures were not performed, the microbiologic responses for baseline pathogens were presumed on the basis of the clinical response. Microbiologic response by patient at the EOT and FU visits was graded as success (i.e., all Gram-positive organisms eradicated or presumed eradicated) or failure (i.e., at least one Gram-positive organism persisted or presumed to have persisted, multiple pathogens with partial eradication). At both the EOT and FU visits, colonization and superinfection were assessed. At the FU visit, a patient's bacteriological response could also include recurrence.

S. aureus = assay: Murine thigh-infection model (time kill, dosing regimen, PK/PD; Tables 31, 32);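 also: mouse thigh infection, bacterial counts per thigh after therapy, dose-response curves fitted with a maximum effect model to give static and 1 or 2 log kill exposures, mean of 4 thighs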
Description: The murine thigh-infection model was used for all organisms throughout the various studies. In this well-established model, approximately 10^6 Cfu of the study organisms are injected into one or both thighs (in 0.1 ml) two hours before starting therapy. The number of organisms in the thigh at the start of therapy in the following studies varied from 10^7.15-7.59 cfu/thigh.
Each point represents the mean of 4 thighs. Five dose levels, ranging 16-fold were used. The dose levels used in the study against S. aureus ranged from 5 to 80 mg/kg.
In these studies, multiple dosing regimens varying the dose and dosage interval were administered intraperitoneally in 0.2 ml volumes to groups of mice for 144 h (6 days). The dosing intervals chosen were 12, 24, 36, and 72 hours. Five different doses (two-fold increases) were used. Study against S. aureus utilized total dose (mg/kg/6d) levels ranging from 30 to 480 mg/kg/6d. […] Each point represents the mean of 4 thighs.
Each of the dose-response curves was also mathematically characterized using a maximum effect model. […] From these parameters we could then calculate the dose required to produce a net bacteriostatic effect over the 144 hour treatment period as well as the doses necessary to produce a 1 and 2 log-reduction in organism burden.
We determined which PK/PD parameter correlated best with efficacy by relating the number of bacteria in thigh at the end of 144 hours of therapy with [1] the peak/MIC ratio, [2] the AUC/MIC ratio, and [3] the percentage of the dosing interval that serum levels exceed the MIC for each of the dosage regimens studied. The PK/PD parameter values for those doses not specifically studied were extrapolated from the values of the nearest studied doses. […] Each point represents the mean of four thighs. […] The data illustrated in these figures were also analyzed by the same maximum dose-response model mentioned above, except that the different PK/PD parameters were used in place of the dose. The R^2 represents the coefficient of determination observed for the relationship between efficacy and each PK/PD parameter.

[1] = Mean ± SD of S. aureus strains, q 24 h regimen
[2] = Mean ± SD of S. aureus strains, q 72 h regimen

CN[C@H]1C(=O)N[C@@H]2Cc3ccc(cc3)Oc3cc4cc(c3O[C@@H]3O[C@H](C(=O)O)[C@@H](O)[C@H](O)[C@H]3NC(=O)CCCCCCCCC(C)C)Oc3ccc(cc3Cl)[C@@H](O)[C@@H]3NC(=O)[C@H](NC(=O)[C@@H]4NC(=O)[C@@H](NC2=O)c2cc(cc(O)c2Cl)Oc2cc1ccc2O)c1ccc(O)c(c1)-c1c(O[C@H]2O[C@H](CO)[C@@H](O)[C@H](O)[C@@H]2O)cc(O)cc1[C@@H](C(=O)NCCCN(C)C)NC3=O [Dalbavancin]
S. aureus eradication rate (Gram-positive pathogen; FU, single-dose): 50%
S. aureus eradication rate (Gram-positive pathogen; FU, two-dose): 90%
Microbiologic Success Rate (Gram-positive pathogen; MITT population, EOT, Single-dose (1100 mg)): 5/14 (35.7) %
Microbiologic Success Rate (Gram-positive pathogen; MITT population, EOT, Two-dose (1000/500 mg)): 10/13 (76.9) %
Microbiologic Success Rate (Gram-positive pathogen; MITT population, FU, Single-dose (1100 mg)): 3/14 (21.4) %
Microbiologic Success Rate (Gram-positive pathogen; MITT population, FU, Two-dose (1000/500 mg)): 9/13 (69.2) %
MRSA eradication rate (Gram-positive pathogen; MITT population, single-dose): 50%
MRSA eradication rate (Gram-positive pathogen; MITT population, two-dose): 80%
Success Rate by Pathogen (Gram-positive pathogen; Methicillin-resistant S. aureus, Single-dose (1100 mg)): 3/6 (50%)
Success Rate by Pathogen (Gram-positive pathogen; Methicillin-resistant S. aureus, Two-dose (1000/500 mg)): 4/5 (80%)
Microbiologic Success Rate (Gram-positive pathogen; Microbiologically evaluable population, EOT, Single-dose (1100 mg)): 5/13 (38.5) %
Microbiologic Success Rate (Gram-positive pathogen; Microbiologically evaluable population, EOT, Two-dose (1000/500 mg)): 8/11 (72.7) %
Microbiologic Success Rate (Gram-positive pathogen; Microbiologically evaluable population, FU, Single-dose (1100 mg)): 3/11 (27.3) %
Microbiologic Success Rate (Gram-positive pathogen; Microbiologically evaluable population, FU, Two-dose (1000/500 mg)): 8/11 (72.7) %
Success Rate by Pathogen (Gram-positive pathogen; Total organisms, Two-dose (1000/500 mg)): 14/16 (87.5%)^
microbiologic success rates (Gram-positive pathogen; both visits (EOT and FU), single dose): < 40%
Microbiologic Success Rate (Gram-positive pathogen; microbiologically-evaluable population, EOT, single-dose): 38.5%
Microbiologic Success Rate (Gram-positive pathogen; microbiologically-evaluable population, EOT, two-dose): 72.7%
eradication/presumed eradication rate, all organisms (Gram-positive pathogen; microbiologically-evaluable population, single-dose): 58%
eradication/presumed eradication rate, all organisms (Gram-positive pathogen; microbiologically-evaluable population, two-dose): 92%
Microbiologic Success Rate (Gram-positive pathogen; microbiologically-evaluable population, FU, single-dose): 27.3%
Microbiologic Success Rate (Gram-positive pathogen; microbiologically-evaluable population, FU, two-dose): 72.7%
1 Log Kill f24AUC/MBC (S. aureus; MRSA, q 24 h regimen): 109
1 Log Kill f24AUC/MIC (S. aureus; MRSA, q 24 h regimen): 452
1 Log Kill mg/kg/24 h (S. aureus; MRSA, q 24 h regimen): 45.3 mg/kg/24 h
2 Log Kill f24AUC/MBC (S. aureus; MRSA, q 24 h regimen): 125
2 Log Kill f24AUC/MIC (S. aureus; MRSA, q 24 h regimen): 519
2 Log Kill mg/kg/24 h (S. aureus; MRSA, q 24 h regimen): 53.5 mg/kg/24 h
Static Effect f24AUC/MBC (S. aureus; MRSA, q 24 h regimen): 90
Static Effect f24AUC/MIC (S. aureus; MRSA, q 24 h regimen): 374
Static Effect mg/kg/24 h (S. aureus; MRSA, q 24 h regimen): 37.7 mg/kg/24 h
1 Log Kill f24AUC/MBC (S. aureus; MRSA, q 72 h regimen): 48.8
1 Log Kill f24AUC/MIC (S. aureus; MRSA, q 72 h regimen): 202
1 Log Kill mg/kg/24 h (S. aureus; MRSA, q 72 h regimen): 62 mg/kg/24 h
2 Log Kill f24AUC/MBC (S. aureus; MRSA, q 72 h regimen): 70
2 Log Kill f24AUC/MIC (S. aureus; MRSA, q 72 h regimen): 292
2 Log Kill mg/kg/24 h (S. aureus; MRSA, q 72 h regimen): 85 mg/kg/24 h
Static Effect f24AUC/MBC (S. aureus; MRSA, q 72 h regimen): 35.3
Static Effect f24AUC/MIC (S. aureus; MRSA, q 72 h regimen): 147
Static Effect mg/kg/72 h (S. aureus; MRSA, q 72 h regimen): 43 mg/kg/72 h
1 Log Kill f24AUC/MBC (S. aureus; [1]): 86.6 ± 27.6
1 Log Kill f24AUC/MIC (S. aureus; [1]): 268 ± 119
1 Log Kill mg/kg/24 h (S. aureus; [1]): 43.7 ± 9.5 mg/kg/24 h
2 Log Kill f24AUC/MBC (S. aureus; [1]): 110 ± 42
2 Log Kill f24AUC/MIC (S. aureus; [1]): 332 ± 131
2 Log Kill mg/kg/24 h (S. aureus; [1]): 55 ± 14 mg/kg/24 h
Static Effect f24AUC/MBC (S. aureus; [1]): 101 ± 72
Static Effect f24AUC/MIC (S. aureus; [1]): 265 ± 143
Static Effect mg/kg/24 h (S. aureus; [1]): 37.1 ± 9.1 mg/kg/24 h
1 Log Kill f24AUC/MBC (S. aureus; [2]): 75.9 ± 45.2
1 Log Kill f24AUC/MIC (S. aureus; [2]): 213 ± 8.14
1 Log Kill mg/kg/24 h (S. aureus; [2]): 94 ± 46 mg/kg/24 h
2 Log Kill f24AUC/MBC (S. aureus; [2]): 101 ± 61
2 Log Kill f24AUC/MIC (S. aureus; [2]): 266 ± 88
2 Log Kill mg/kg/24 h (S. aureus; [2]): 120 ± 54 mg/kg/24 h
Static Effect f24AUC/MBC (S. aureus; [2]): 55 ± 31
Static Effect f24AUC/MIC (S. aureus; [2]): 160 ± 67
Static Effect mg/kg/72 h (S. aureus; [2]): 72 ± 41 mg/kg/72 h
1 Log Kill f24AUC/MBC (S. aureus; SA25923, q 24 h regimen): 60
1 Log Kill f24AUC/MIC (S. aureus; SA25923, q 24 h regimen): 250
1 Log Kill mg/kg/24 h (S. aureus; SA25923, q 24 h regimen): 51.2 mg/kg/24 h
2 Log Kill f24AUC/MBC (S. aureus; SA25923, q 24 h regimen): 69.3
2 Log Kill f24AUC/MIC (S. aureus; SA25923, q 24 h regimen): 289
2 Log Kill mg/kg/24 h (S. aureus; SA25923, q 24 h regimen): 60 mg/kg/24 h
Static Effect f24AUC/MBC (S. aureus; SA25923, q 24 h regimen): 52
Static Effect f24AUC/MIC (S. aureus; SA25923, q 24 h regimen): 216
Static Effect mg/kg/24 h (S. aureus; SA25923, q 24 h regimen): 42.7 mg/kg/24 h
1 Log Kill f24AUC/MBC (S. aureus; SA25923, q 72 h regimen): 76.1
1 Log Kill f24AUC/MIC (S. aureus; SA25923, q 72 h regimen): 317
1 Log Kill mg/kg/24 h (S. aureus; SA25923, q 72 h regimen): 185 mg/kg/24 h
2 Log Kill f24AUC/MBC (S. aureus; SA25923, q 72 h regimen): 88.1
